Measurements: patent publication US7993884B2, “Beta-xylosidase for conversion of plant cell wall carbohydrates to simple sugars” (The United States of America as represented by the …, priority 2006, dated 2011)
Values joined by “and” are separate entries in the source; they are usually repeats but may differ in a detail not shown here. Equal values may be shown once. “Also recorded” adds a separate entry of the source. Read-outs that look alike come from different tables or passages of the source.

How the values were obtained:
[1] = target: T1, SXA (Selenomonas ruminantium, UniProt O52575); experiment: biochemical; conditions: inhibition of SXA-catalyzed hydrolysis of 4NPX, I=0.3 M, competitive
Method: Reactions were monitored continuously for 0.3 min at 400 nm to determine initial rates. Initial-rate data were fitted to equation 6, where v is the initial rate, kcat is the rate of the reaction when saturated with substrate, S is the substrate concentration, Km is the Michaelis constant, I is the inhibitor concentration (e.g., D-glucose), and Ki is the dissociation constant of inhibitor from the enzyme-inhibitor complex.

[2] = target: T1, SXA; conditions: pH 5.3, 55° C.; for KI (inactivation): read-out: Ki, dissociation constant from protection against thermal inactivation, kobs fitted to equation 4
Method: Initial rates were determined by monitoring reactions continuously at 400 nM for 0.3 min. […] Relative activity remaining data were fitted to equation 3, which describes a first order decay: A is the relative activity remaining at varied times of preincubation, A0 is the relative activity remaining at time zero of the preincubation, kobs is the first order rate constant, and t is the time of preincubation. Apparent affinities for D-xylose and D-glucose were determined by fitting kobs values from the monosaccharide protection studies to equation 4 where kobs is the observed first order rate constant for the decay, k0 is the first order rate constant in the absence of ligand (e.g., D-xylose), I is the ligand concentration in the preincubation mixture, and Ki is the dissociation constant of ligand from the enzyme-ligand complex.
Ligand protection studies contained varied concentrations of D-xylose or D-glucose in the pH 5.3 preincubation buffer at 55° C.

[3] = target: β-D-xylosidase/α-L-arabinofuranosidase (Selenomonas ruminantium, UniProt O52575); experiment: Inhibition of the enzyme by monosaccharides and ethanol (detailed description); format: biochemical, Selenomonas ruminantium GA192
[4] = target: T1, SXA; experiment: pH stability of SXA and protection from low pH inactivation at pH 4.0 by monosaccharides; conditions: pH 4.0, 25° C.
Method: Buffers of constant ionic strength (I=0.3 M), adjusted with NaCl, were used as indicated: 100 mM succinate-NaOH (pH 3.5-6), 100 mM sodium phosphate (pH 6-8), 30 mM sodium pyrophosphate (pH 8-9), and 100 mM glycine-NaOH (pH 9-10). […] Initial rates were determined by monitoring reactions continuously at 400 nM for 0.3 min. […] Relative activity remaining data were fitted to equation 3, which describes a first order decay: A is the relative activity remaining at varied times of preincubation, A0 is the relative activity remaining at time zero of the preincubation, kobs is the first order rate constant, and t is the time of preincubation. Apparent affinities for D-xylose and D-glucose were determined by fitting kobs values from the monosaccharide protection studies to equation 4 where kobs is the observed first order rate constant for the decay, k0 is the first order rate constant in the absence of ligand (e.g., D-xylose), I is the ligand concentration in the preincubation mixture, and Ki is the dissociation constant of ligand from the enzyme-ligand complex.

[5] = target: T1, SXA; experiment: SXA-catalyzed hydrolysis of 4NP-glycoside substrates, initial rates (Methods A and B);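 as to all read-outs here: initial rates from 4-nitrophenol release, tracked by absorbance over roughly 0.3 min and converted using product-minus-substrate extinction differences, in 1 mL mixtures started by enzyme addition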; format: biochemical; conditions: for Km / kcat Rel. to η/ηo = 1: Exper. 2: MES pH 6.00, Method B
Method: (§1) Two methods were employed for determining initial rates. […] Initial rates were calculated from fitting the absorbance readings versus time to a line (minimum of 4 points per reaction progression) and by using an extinction coefficient of 17.4 mM^−1 cm^−1. In Method B (continuous monitoring), temperature-equilibrated reactions (1 mL) were monitored at 380 nm (for pH values below 6) or 400 nm (for pH values of 6 and above). Reactions were generally monitored 0.3 min for initial rate determinations. Delta extinction coefficients (product-substrate) used for molar conversion were determined by subtracting the absorbance of substrate (at pH 5 so even very minor contaminating 4NP would not contribute) from the absorbance of 4NP for each reaction condition. […] The concentration of 4NP substrates was determined by incubating the substrate with excess enzyme until an end point was reached, adding an aliquot (0.01 to 0.1 mL) to 0.1 M NaOH, recording the absorbance at 400 nm and using the extinction coefficient of 18.3 cm^−1mM^−1. Unless indicated otherwise, for both Methods A and B, reactions were initiated by adding a small aliquot of enzyme (generally 7 μl of enzyme diluted into 10 mM sodium phosphate, pH 7.0, and incubated on wet ice or at ˜25° C.) to the 1-mL, temperature-equilibrated (25° C.) reaction mixtures. For pH studies, buffers of constant ionic strength (I=0.3 M), adjusted with NaCl, were used as indicated: 100 mM succinate-NaOH (pH 4.3-6), 100 mM sodium phosphate (pH 6-8), 30 mM sodium pyrophosphate (pH 8-9), glycine-NaOH (pH 9) and glycylglycine-NaOH (pH 9).

[6] = target: T1, SXA; experiment: biochemical; conditions: pH 5.3, 25° C.
[7] = target: T1, SXA; experiment: biochemical; conditions: for Ki: Ki^D-xylose, inhibition of SXA-catalyzed hydrolysis of 4NPA; for Km: read-out: Km^4NPA, pH 5.3, 25° C.
[8] = target: T1, SXA; conditions: pH 5.3 and 25° C., relative to A2
Method: (§2) Samples (25 μL) were injected onto the column equilibrated with 0.1 M NaOH and developed with a 15-min linear gradient (0.1 M NaOH to 15 mM sodium acetate) at ˜25° C. and a flow rate of 1 mL min^−1.
(§3) Before (time=0 min) and after (time=1-6 min) initiating reactions with enzyme (7 μL), samples (0.05-0.1 mL) were removed and quenched with an equal volume of 0.5 M acetic acid and frozen. Following lyophilization, samples were dissolved in H2O and analyzed by HPLC. […] Results from two replicate reactions were combined to provide data points for the progress curves.
(§4) Before and after addition of enzyme (7 μL), 25-μl aliquots of the reaction mixtures were directly injected onto the HPLC column for quantification of product L-arabinose.

[9] = target: Selenomonas ruminantium GA192 β-D-xylosidase (SXA, parent SEQ ID NO: 2) variant D14A (Pseudoselenomonas ruminantium, UniProt O52575, D14A); experiment: Steady-state kinetics of SXA mutant D14A with 4NP substrates
Method: (§5) Site-directed mutagenesis was performed using the QuikChange site-directed mutagenesis kit (Stratagene) according the manufacturer's instructions. […] Complete sequences were determined on a 3700 sequencer (Applied Biosystems) using T7 promoter and specific primers to confirm that only the intended mutations had been introduced. Lasergene software (DNAStar) was used to analyze the sequence data. pSRA1 and its mutated plasmids were used for the transformation of E. coli BL21(DE3). Transformants were inoculated to 50 mL Luria-Bertani (LB) broth supplemented with 50 mg ampicillin/mL and the flask was shaken overnight at 250 rpm and 37° C. Twenty mL of the overnight culture were transferred to a 2.8-liter baffled flask containing 1.0 liter SOB medium [2.0% tryptone, 0.5% yeast extract, 0.05% NaCl, 0.0186% KCl (all in wt/vol) and 10 mM MgSO4] supplemented with 50 mg ampicillin/mL. The culture was shaken at 250 rpm and 37° C. […] Cells were harvested by centrifugation and cell pellets were stored at −80° C. until use.
(§6) Initial purification steps and diafiltration steps were performed at 4° C. Chromatography was at room temperature (˜24° C.). Cells were thawed, suspended in 40 mL of 50 mM Tris-HCl, pH 7.5 (Buffer A) containing Complete protease inhibitor cocktail (Roche) and disrupted by sonication. Following centrifugation, the supernatant was brought to 30% saturation with respect to ammonium sulfate and centrifuged. […] The column was washed until absorbance at 280 nm of the eluate became minimal (˜200 mL) and developed with a 500-mL linear gradient (Buffer A+30% saturated ammonium sulfate to Buffer A).
(§7) Two methods were employed for determining initial rates. […] Initial rates were calculated from fitting the absorbance readings versus time to a line (minimum of 4 points per reaction progression) and by using an extinction coefficient of 17.4 mM^−1 cm^−1. […] The concentration of 4NP substrates was determined by incubating the substrate with excess enzyme until an end point was reached, adding an aliquot (0.01 to 0.1 mL) to 0.1 M NaOH, recording the absorbance at 400 nm and using the extinction coefficient of 18.3 cm^−1mM^−1. Unless indicated otherwise, for both Methods A and B, reactions were initiated by adding a small aliquot of enzyme (generally 7 μl of enzyme diluted into 10 mM sodium phosphate, pH 7.0, and incubated on wet ice or at ˜25° C.) to the 1-mL, temperature-equilibrated (25° C.) reaction mixtures. For pH studies, buffers of constant ionic strength (I=0.3 M), adjusted with NaCl, were used as indicated: 100 mM succinate-NaOH (pH 4.3-6), 100 mM sodium phosphate (pH 6-8), 30 mM sodium pyrophosphate (pH 8-9), glycine-NaOH (pH 9) and glycylglycine-NaOH (pH 9).

[10] = target: Selenomonas ruminantium GA192 β-D-xylosidase (SXA, parent SEQ ID NO: 2) variant E186A (Pseudoselenomonas ruminantium, UniProt O52575, E186A); experiment: Steady-state kinetics of SXA mutant E186A with 4NP substrates
Method: as §5, §6, §7

[11] = target: T2, Selenomonas ruminantium GA192 β-D-xylosidase (SXA), wild type, SEQ ID NO: 2 (Pseudoselenomonas ruminantium, UniProt O52575); experiment: Steady-state kinetics of SXA with 4NPX2, A2 and X2-X6 by HPLC (Example 1)
Method: as §2, §3, §4
(§8) Quenched samples were analyzed by HPLC for D-xylose. Initial rates were determined from linear regressions of [D-xylose] produced versus reaction time. […] Four 1-mL replicate reactions were conducted to supply data points for the progress curves. Two parallel reactions were conducted, under the same conditions with the same reaction components, the absorbance at 400 nm was continuously monitored (20 min) for 4NP production, and the absorbance values were converted to mM 4NP concentrations by using a delta extinction coefficient (product-substrate) of 8.22 mM^−1 cm^−1.

[12] = target: T2, Selenomonas ruminantium GA192 β-D-xylosidase (SXA), wild type, SEQ ID NO: 2; experiment: Steady-state kinetics of SXA with 4NP-glycosides (Example 1, Methods A and B)
Method: Kinetics with 4NP Substrates
as §1

[13] = target: T1, SXA; conditions: 100 mM sodium phosphate, pH 7.0, 25° C., not well determined
Method: as §2, §8

[14] = I=0.3 M, 25° C., Eq. 7 (4NPX), Eq. 5 (4NPA)
[15] = 100 mM succinate-NaOH, pH 5.3, 25° C, Method A

## O=C[C@H](O)[C@@H](O)[C@H](O)[C@H](O)CO [D-glucose]
[1]; pH 5.3, 25° C.
  Ki: 79 ± 2.3 mM
[1]; pH 7.0, 25° C.
  Ki: 34.5 ± 0.7 mM
[1]; pH 9.0, 25° C.
  Ki: 18.7 ± 0.6 mM
[2]; 93.5 mM
  kobs of SXA inactivation in presence of monosaccharide: 0.00949 ± 0.00069 min⁻¹
[2]; 187 mM
  kobs of SXA inactivation in presence of monosaccharide: 0.00588 ± 0.00077 min⁻¹
[2]; 280 mM
  kobs of SXA inactivation in presence of monosaccharide: 0.00445 ± 0.00081 min⁻¹
[2]; 374 mM
  kobs of SXA inactivation in presence of monosaccharide: 0.00336 ± 0.00095 min⁻¹
[2]
  KI (inactivation): 56.1 ± 0.8 mM
[3]
  Ki: 27 ± 0.4 mM
[4]; 234 mM
  kobs of SXA inactivation in presence of monosaccharide: 0.0210 ± 0.0016 min⁻¹
[4]; 467 mM
  kobs of SXA inactivation in presence of monosaccharide: 0.0124 ± 0.0007 min⁻¹

## O=C[C@H](O)[C@@H](O)[C@H](O)CO [D-xylose]
[5]; read-out: Ki(xylose)
  Ki: 7.4 mM
[1]; pH 4.3, 25° C.
  Ki: 43.5 ± 1.1 mM
[1]; pH 5.3, 25° C.
  Ki: 7.62 ± 0.26 mM
[1]; pH 7.0, 25° C.
  Ki: 3.82 ± 0.06 mM
[1]; pH 9.0, 25° C.
  Ki: 3.21 ± 0.14 mM
[2]; 18.7 mM
  kobs of SXA inactivation in presence of monosaccharide: 0.0132 ± 0.0010 min⁻¹
[2]; 46.7 mM
  kobs of SXA inactivation in presence of monosaccharide: 0.00649 ± 0.00087 min⁻¹
[2]; 93.5 mM
  kobs of SXA inactivation in presence of monosaccharide: 0.00326 ± 0.00056 min⁻¹
[2]; 280 mM
  kobs of SXA inactivation in presence of monosaccharide: 0.000917 ± 0.00033 min⁻¹
[2]
  KI (inactivation): 17.6 ± 1.8 mM
[6]; Ki^D-xylose, inhibition of SXA-catalyzed hydrolysis of 4NPX, Eq. 3 noncompetitive (mixed), D-xylose α:β 1:2.5
  Ki: 9.63 ± 0.3 mM
[6]; Kis^D-xylose·4NPX, Eq. 3
  Ki: 15.9 ± 2.1 mM
[7]; D-xylose α:β 1:2.5, pH 7.0 (100 mM sodium phosphate, I=0.3 M), 25° C.
  Ki: 5.15 ± 0.08 mM
[7]; D-xylose α:β 6:1, pH 7.0 (100 mM sodium phosphate, I=0.3 M), 25° C.
  Ki: 4.97 ± 0.05 mM
[7]; D-xylose α:β ratio of 1:2.5, pH 5.3, 25° C., competitive
  Ki: 11.8 ± 0.3 mM
[7]; D-xylose α:β ratio of 6:1, pH 5.3, 25° C., competitive
  Ki: 11.9 ± 0.3 mM
[3]; read-out: Ki
  Ki: 4.2 ± 0.1 mM
[4]; 46.7 mM
  kobs of SXA inactivation in presence of monosaccharide: 0.0335 ± 0.0008 min⁻¹
[4]; 93.5 mM
  kobs of SXA inactivation in presence of monosaccharide: 0.0186 ± 0.0004 min⁻¹
[4]; 280 mM
  kobs of SXA inactivation in presence of monosaccharide: 0.00614 ± 0.00036 min⁻¹
[4]; read-out: Ki, dissociation constant from protection against low pH inactivation, kobs fitted to equation 4
  KI (inactivation): 31.7 ± 2.8 mM

## O=C[C@H](O)[C@@H](O)[C@@H](O)CO [L-arabinose]
[3]; read-out: Ki
  Ki: 20 ± 0.5 mM

## O=[N+]([O-])c1ccc(O[C@@H]2O[C@@H](CO)[C@H](O)[C@H]2O)cc1 [4NPA, 4-nitrophenyl-α-L-arabinofuranoside]
[5]
  pH-independent kcat/Km: 5.10±0.07 s^−1 mM^−1
[5]; 5 mM 4NP glycoside, 100 mM succinate-NaOH, pH 5.3, 25° C., Method A, initial rate relative to 4NPX
  Relative Rate: 0.101 ± 0.003
[5]; 1/Km versus pH, Eq. 4 (4NPX), Eq. 5 (4NPA)
  pH-independent 1/Km: 1.60±0.02 mM^−1
[5]; η/ηo 1.00
  Km: 745 ± 36 µM
  kcat Rel. to η/ηo = 1: 1.00
[5]; η/ηo 6.85 (50% sucrose)
  Km: 754 ± 101 µM
  kcat Rel. to η/ηo = 1: 0.960 ± 0.040
[5]; I=0.3 M, 25° C., Eq. 4
  pKa of kcat versus pH (single group): 3.6 and 3.64±0.10
[5]; I=0.3 M, 25° C., Eq. 5
  pKa1 of kcat/Km versus pH: ~5.0 and 5.06±0.02
  pKa2 of kcat/Km versus pH: 7.20±0.02
[5]; [14]
  pKa1 of 1/Km versus pH: 5.00±0.03
  pKa2 of 1/Km versus pH: 7.16±0.03
[5]; from pH dependencies
  binding to dianionic SXA (D14^−E186^−): weakly, if at all; also recorded: no affinity
[7]; FIG. 22A experiment (D-xylose α:β 6:1)
  Km: 880 ± 130 µM
[7]; FIG. 22B experiment (D-xylose α:β 1:2.5)
  Km: 900 ± 13 µM
[8]
  relative kcat values: 34
[9]; [15]
  kcat: 0.000936 ± 0.000012 s⁻¹
[9]; pH 5.3, 25° C.
  factor by which kcat is degraded vs wild type: 3000
[10]; [15]
  kcat: 0.000239 ± 0.000008 s⁻¹
[10]; pH 5.3, 25° C.
  factor by which kcat is degraded vs wild type: 11000
[11]; 4NPA larger / A2 reduced
  kcat factor between 4NPA and A2: 36 fold
[11]; pH 5.3, 25° C, A2 = 1
  relative kcat value: 34
[12]; 100 mM MES-NaOH, pH 6.00, 25° C, Method B, 50% sucrose, η/ηo 6.85
  kcat: 2.87 ± 0.12 s⁻¹
[12]; 100 mM MES-NaOH, pH 6.00, 25° C, Method B, η/ηo 1.00
  kcat: 2.99 ± 0.05 s⁻¹
[12]; 100 mM succinate-NaOH, pH 5.3, 25° C, Method A, no sucrose
  kcat: 2.68 ± 0.06 s⁻¹
[12]; from pH dependence of 1/Km
  affinity of dianionic SXA (D14^−E186^−), higher than that of monoanionic SXA (D14^−E186^H): no affinity
[12]; pH 6.00, η/ηo 6.85
  kcat Rel. to η/ηo = 1: 0.960 ± 0.040

## O=[N+]([O-])c1ccc(O[C@@H]2OC[C@@H](O[C@@H]3OC[C@@H](O)[C@H](O)[C@H]3O)[C@H](O)[C@H]2O)cc1 [4NPX2, 4-Nitrophenyl-β-D-xylobioside]
[13]
  kcat (4NPX2 to 4NPX + D-xylose): 50.5 ± 25.7 s⁻¹
[13]; read-out: Km (4NPX2 to 4NPX + D-xylose)
  Km: 690 ± 430 µM
